Measurements: US5624923A, “Tricyclic diazepine vasopressin antagonists and oxytocin antagonists” (priority 1995, dated 1997)

Key:
[1] = target: T1, Rat Kidney Medullary V2 Receptors (Rattus norvegicus, UniProt Q00788); assay: Binding Assay to Rat Kidney Medullary V2 Receptors; conditions: rat kidney medulla membranes; read-out: V2 IC50
T1 construct: Medullary tissues from rat kidneys are dissected out; from tissue; host or cells: rat kidney medulla membranes
How it was run: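 IC50 derived from competition curves; bound tritium counted by liquid scintillation after filtration. Rat medullary kidney membranes (Tris-HCl pH 7.4, BSA, PMSF) were incubated 120 min to equilibrium with radioligand and test compound (added in 50% DMSO). Nonspecific binding: 1.0 μM unlabeled ligand.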

Rat Hepatic V1 Receptors = target: T2, Rat Hepatic V1 Receptors (Rattus norvegicus, UniProt P30560); assay: Binding Assay to Rat Hepatic V1 Receptors; conditions: rat liver membranes; read-out: V1 IC50
T2 construct: Rat liver plasma membranes expressing the vasopressin V1 receptor subtypes; from tissue; host or cells: rat liver plasma membranes
T2 sequence (P30560 whole entry): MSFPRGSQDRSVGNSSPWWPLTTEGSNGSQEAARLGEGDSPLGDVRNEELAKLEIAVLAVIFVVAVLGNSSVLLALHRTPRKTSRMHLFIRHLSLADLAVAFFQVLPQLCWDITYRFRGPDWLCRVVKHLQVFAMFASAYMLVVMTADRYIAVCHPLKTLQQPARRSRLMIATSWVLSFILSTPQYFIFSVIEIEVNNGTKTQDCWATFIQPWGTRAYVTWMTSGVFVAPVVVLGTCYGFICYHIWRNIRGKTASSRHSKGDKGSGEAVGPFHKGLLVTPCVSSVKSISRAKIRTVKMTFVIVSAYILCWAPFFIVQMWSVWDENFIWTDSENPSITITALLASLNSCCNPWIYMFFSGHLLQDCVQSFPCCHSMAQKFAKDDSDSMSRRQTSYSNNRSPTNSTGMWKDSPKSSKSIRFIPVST

Vasopressin V1 = Vasopressin V1 Antagonist Activity in Conscious Rats (vasopressin vasopressor response); type: in vivo, rat; parameters: Average Change: unit not given here; conditions: for % Inhibition / Average Change: SHR
How it was run: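 Conscious rats are restrained supine, and under local 2% procaine a PE 10/20 cannula is passed through the ventral caudal tail artery into the lower abdominal aorta. The caudal vein is cannulated for intravenous dosing. Blood pressure is recorded with a Statham P23Db transducer, and vasopressin injections are repeated after compound dosing. Percent antagonism is calculated against the pre-drug vasopressor response taken as 100%.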

Vasopressin V2 = Vasopressin V2 Antagonist Activity in Conscious Hydrated Rats; type: in vivo, rat; conditions: AVP 0.4 μg/kg i.p.
How it was run: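 Four-hour urine output, osmolality and electrolytes (Na+, K+, Cl−) recorded in water-loaded rats (30 mL/kg deionized water orally) given AVP i.p. at 0.4 μg/kg. Test compounds were given orally at 0.1–100 mg/kg 1 h before AVP; 2–4 rats per compound.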

[2] = 10 mg/kg i.v., VAS 0.01 i.u./kg, 30 min
[3] = 10 mg/kg i.v., VAS 0.01 i.u./kg, 60 min
[4] = 10 mg/kg i.v., VAS 0.01 i.u./kg, 90 min
[5] = 10 mg/kg i.v., VAS 0.01 i.u./kg, 120 min
[6] = 10 mg/kg i.v., VAS 0.01 i.u./kg, 180 min
[7] = 10 mg/kg i.v., VAS 0.01 i.u./kg, 240 min
[8] = 10 mg/kg i.v., VAS 0.01 i.u./kg, 300 min
[9] = 10 mg/kg i.v., VAS 0.02 i.u./kg, 30 min
[10] = 10 mg/kg i.v., VAS 0.02 i.u./kg, 60 min
[11] = 10 mg/kg i.v., VAS 0.02 i.u./kg, 90 min
[12] = 10 mg/kg i.v., VAS 0.02 i.u./kg, 120 min
[13] = 10 mg/kg i.v., VAS 0.02 i.u./kg, 180 min
[14] = 10 mg/kg i.v., VAS 0.02 i.u./kg, 240 min
[15] = 10 mg/kg i.v., VAS 0.02 i.u./kg, 300 min

T1 sequence (Q00788 whole entry): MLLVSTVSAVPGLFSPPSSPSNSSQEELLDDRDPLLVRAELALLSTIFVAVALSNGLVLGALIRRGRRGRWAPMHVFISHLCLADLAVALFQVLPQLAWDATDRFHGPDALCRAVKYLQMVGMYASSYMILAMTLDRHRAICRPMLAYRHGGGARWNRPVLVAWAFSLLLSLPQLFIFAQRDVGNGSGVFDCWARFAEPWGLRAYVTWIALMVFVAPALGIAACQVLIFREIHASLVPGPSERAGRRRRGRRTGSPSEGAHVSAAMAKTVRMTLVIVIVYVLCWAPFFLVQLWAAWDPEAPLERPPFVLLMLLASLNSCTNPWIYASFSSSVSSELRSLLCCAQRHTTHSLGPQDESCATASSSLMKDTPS

| Structure (SMILES) | IC50 [1] [µM] | IC50 (Rat Hepatic V1 Receptors) [µM] | Max. % Inhibition (Vasopressin V1; 10 mg/kg i.v.) [%] | Time (of max. % inhibition) (Vasopressin V1; 10 mg/kg i.v.) [min] | Osmolality (Vasopressin V2; 10 mg/kg orally) [mOsm/kg] | Urine Volume (Vasopressin V2; 10 mg/kg orally) [ml/4 hrs] | % Inhibition (Vasopressin V1; [2]) [%] | Average Change (Vasopressin V1; [2]) | % Inhibition (Vasopressin V1; [3]) [%] | Average Change (Vasopressin V1; [3]) | % Inhibition (Vasopressin V1; [4]) [%] | Average Change (Vasopressin V1; [4]) | % Inhibition (Vasopressin V1; [5]) [%] | Average Change (Vasopressin V1; [5]) | % Inhibition (Vasopressin V1; [6]) [%] | Average Change (Vasopressin V1; [6]) | % Inhibition (Vasopressin V1; [7]) [%] | Average Change (Vasopressin V1; [7]) | % Inhibition (Vasopressin V1; [8]) [%] | Average Change (Vasopressin V1; [8]) | further results |
| --- | --- | --- | --- | --- | --- | --- | --- | --- | --- | --- | --- | --- | --- | --- | --- | --- | --- | --- | --- | --- | --- |
| Cc1cccc(C(=O)Nc2ccc(C(=O)N3Cc4cccn4Cc4ccccc43)cc2)c1C [Example 467, N-[4-(5H-pyrrolo[2,1-c][1,4]benzodiazepin-10(11H)-ylcarbonyl)phenyl]-2,3-dimethylbenzamide] | 0.005 | 0.031 | 65 | 120 | 365 | 18 |  |  |  |  |  |  |  |  |  |  |  |  |  |  |  |
| O=C(Cc1ccccc1Cl)Nc1ccc(C(=O)N2Cc3cccn3Cc3ccccc32)cc1 [Example 9, 2-Chloro-N-[4-(5H-pyrrolo[2,1-c][1,4]-benzodiazepin-10(11H)-ylcarbonyl)phenyl]benzeneacetamide] | 0.004 | 0.007 | 95 | 60 | 702 | 5.8 |  |  |  |  |  |  |  |  |  |  |  |  |  |  |  |
| COc1ccccc1C(=O)Nc1ccc(C(=O)N2Cc3cccn3Cc3ccccc32)cc1 [Example 2, N-[4-(5H-Pyrrolo[2,1-c][1,4]benzodiazepin-10(11H)-ylcarbonyl)phenyl]-2-methoxybenzamide] | 0.014 | 0.031 |  |  | 1015 | 9.3 | 79 | 6.5 | 74 | 8 | 66 | 10.5 | 69 | 9.5 | 55 | 14 | 47 | 16.5 | 44 | 17.5 | % Inhibition (Vasopressin V1; [9]): 84%; Average Change (Vasopressin V1; [9]): 8; % Inhibition (Vasopressin V1; [10]): 74%; Average Change (Vasopressin V1; [10]): 13; % Inhibition (Vasopressin V1; [11]): 70%; Average Change (Vasopressin V1; [11]): 15; % Inhibition (Vasopressin V1; [12]): 70%; Average Change (Vasopressin V1; [12]): 15; % Inhibition (Vasopressin V1; [13]): 56%; Average Change (Vasopressin V1; [13]): 22; % Inhibition (Vasopressin V1; [14]): 50%; Average Change (Vasopressin V1; [14]): 25; % Inhibition (Vasopressin V1; [15]): 37%; Average Change (Vasopressin V1; [15]): 31.5; Max. % Inhibition (Vasopressin V1; 30 mg/kg i.v.): 74%; Time (of max. % inhibition) (Vasopressin V1; 30 mg/kg i.v.): 120 min |
| O=C(Nc1ccc(C(=O)N2Cc3cccn3Cc3ccccc32)cc1)C1CCCCC1 [Example 358, N-[4-(5H-Pyrrolo[2,1-c][1,4]benzodiazepin-10(11)ylcarbonyl)phenyl]-cyclohexanecarboxamide] | 0.016 | 0.011 |  |  |  |  | 67 | 12 | 64 | 13 | 52 | 17.5 | 78 | 8 | 52 | 17.5 | 67 | 12 | 48 | 19 | % Inhibition (Vasopressin V1; [9]): 39%; Average Change (Vasopressin V1; [9]): 24; % Inhibition (Vasopressin V1; [10]): 75%; Average Change (Vasopressin V1; [10]): 10; % Inhibition (Vasopressin V1; [11]): 72%; Average Change (Vasopressin V1; [11]): 11; % Inhibition (Vasopressin V1; [12]): 65%; Average Change (Vasopressin V1; [12]): 14; % Inhibition (Vasopressin V1; [13]): 63%; Average Change (Vasopressin V1; [13]): 14.5; % Inhibition (Vasopressin V1; [14]): 61%; Average Change (Vasopressin V1; [14]): 15.5; % Inhibition (Vasopressin V1; [15]): 59%; Average Change (Vasopressin V1; [15]): 16; Osmolality (Vasopressin V2; 30 mg/kg orally): 875 mOsm/kg; Urine Volume (Vasopressin V2; 30 mg/kg orally): 5.5 ml/4 hrs |
